# In patent US5210193A, “Piperazine derivatives” (American Cyanamid Company, priority 1990, dated 1993):
# Several values for one entry are separate records, joined by “and”; a condition that tells them apart may be missing. Identical values can stand only once. Counter-ions that a name gives are not always drawn. Like-named read-outs stand apart in the source and are kept apart here.
# Columns and labels:
# Assay in all cases: in vitro antibacterial MIC, agar plate dilution
# Format in all cases: cell-based
# [1] = system: Proteus rettgeri IO 83-21; settings: 35° C.
# Procedure, shortened: (§1)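 MIC, mcg/ml: lowest concentration with no visible growth after 18 h incubation at 35° C. Mueller-Hinton agar dilution plates; ~10^4 CFU inoculum via Steers replicating device.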
# [2] = system: Staphylococcus aureus K 82-26; settings: 35° C.
# Procedure, shortened: as §1
# [3] = system: Escherichia coli VGH 84-19; settings: 35° C.
# Procedure, shortened: as §1
# [4] = system: Klebsiella pneumoniae CMC 84-31; settings: 35° C.
# Procedure, shortened: as §1
# [5] = system: Morganella morganii MOR 84-45; settings: 35° C.
# Procedure, shortened: as §1
# [6] = system: Staphylococcus aureus CMC 83-131; settings: 35° C.
# Procedure, shortened: as §1
# [7] = system: Morganella morganii VHG 84-12; settings: Morganella morganii VHG 84-12 (VGH 84-12 for Example 131), 35° C.
# Procedure, shortened: as §1
# [8] = system: Escherichia coli CMC 84-11; settings: 18 hours, 35° C., monohydrochloride
# Procedure, shortened: as §1
# [9] = system: Serratia marcescens MOR 84-41; settings: 35° C.
# Procedure, shortened: as §1
# [10] = system: Morganella morganii CMC 84-38; settings: 35° C.
# Procedure, shortened: as §1
# [11] = system: Staphylococcus aureus VGH 84-47; settings: 35° C.
# Procedure, shortened: as §1
# [12] = system: Serratia marcescens K 84-18; settings: 18 hours, 35° C., monohydrochloride
# Procedure, shortened: as §1
# [13] = system: Streptococcus faecalis CMC 83-120; settings: 35° C.
# Procedure, shortened: as §1
# [14] = system: Enterobacter cloacae VGH 84-39; settings: 35° C.
# Procedure, shortened: as §1
# [15] = system: Klebsiella pneumoniae MOR 84-24; settings: 35° C.
# Procedure, shortened: as §1
# [16] = system: Serratia marcescens CMC 83-74; settings: 35° C.
# Procedure, shortened: as §1
# [17] = system: Streptococcus faecalis UCI 85-19; settings: 35° C.
# Procedure, shortened: as §1
# [18] = system: Staphylococcus aureus VGH 84-45; settings: 35° C.
# Procedure, shortened: as §1
# [19] = system: Staphylococcus aureus Smith; settings: 35° C.
# Procedure, shortened: as §1
# [20] = system: Escherichia coli ATCC 25922; settings: 35° C.
# Procedure, shortened: as §1
# [21] = system: Escherichia coli MOR 84-20; settings: 35° C.
# Procedure, shortened: as §1
# [22] = system: Escherichia coli CMC 84-50; settings: 35° C.
# Procedure, shortened: as §1
# [23] = system: Morganella morganii CMC 84-37; settings: 35° C.
# Procedure, shortened: as §1
# [24] = system: Streptococcus faecalis VGH 84-69; settings: 35° C.
# Procedure, shortened: as §1
# [25] = system: Klebsiella pneumoniae IO 83-5; settings: 35° C.
# Procedure, shortened: as §1
# [26] = system: Enterobacter cloacae MOR 84-30; settings: 35° C.
# Procedure, shortened: as §1
# [27] = system: Streptococcus faecalis UCI 85-30; settings: 35° C.
# Procedure, shortened: as §1
# [28] = system: Providencia stuarti CMC 83-3; settings: 35° C.
# Procedure, shortened: as §1
# [29] = system: Enterobacter cloacae K 84-10; settings: 35° C.
# Procedure, shortened: as §1
# [30] = system: Staphylococcus aureus ATTC 29213; settings: 35° C.
# Procedure, shortened: as §1
# [31] = system: Proteus rettgeri CMC 84-41; settings: 18 hours, 35° C., monohydrochloride
# Procedure, shortened: as §1
# [32] = system: Serratia marcescens VGH 84-30; settings: Serratia marcescens, VGH8430, 18 h, 35° C., read-out: MIC
# Procedure, shortened: as §1
# Escherichia coli LL 311 = settings: Escherichia coli, LL311, 18 h, 35° C., read-out: MIC
# Procedure, shortened: as §1
# [33] = system: Streptococcus faecalis VGH 84-65; settings: Enterococcus faecalis, VGH8465, 18 h, 35° C., read-out: MIC
# Procedure, shortened: as §1
# [34] = system: Pseudomonas aeruginosa K 84-16; settings: 35° C.
# Procedure, shortened: as §1
# [35] = system: Pseudomonas aeruginosa LL-1244; settings: Pseudomonas aeruginosa, LL1244, 18 h, 35° C., read-out: MIC
# Procedure, shortened: as §1
# [36] = system: Pseudomonas aeruginosa CMC 83-20; settings: 35° C.
# Procedure, shortened: as §1
# [37] = system: Pseudomonas aeruginosa VGH 84-3; settings: 35° C.
# Procedure, shortened: as §1
# [38] = system: Pseudomonas aeruginosa VGH 84-4; settings: Pseudomonas aeruginosa, VGH844, 18 h, 35° C., read-out: MIC
# Procedure, shortened: as §1
# Citrobacter div. K 82-24 = settings: Citrobacter, DIV.K8224, 18 h, 35° C., read-out: MIC
# Procedure, shortened: as §1
smiles,measurement,setting,value
"O=C(O)c1cn(C2CC2)c2cc(N3CCNC(c4ccccn4)C3)c(F)cc2c1=O (stereo not drawn) [Example 129, 1-Cyclopropyl-6-fluoro-1,4-dihydro-4-oxo-7-[3-(2-pyridinyl) -1-piperazinyl]-3-quinolinecarboxylic acid, monohydrochloride]",MIC,"[1]; 18 hours, monohydrochloride",0.5 µg/mL
same,MIC,"[2]; 18 hours, monohydrochloride",2 µg/mL
same,MIC,"[3]; 18 hours, monohydrochloride",0.12 µg/mL
same,MIC,"[4]; 18 hours, monohydrochloride",0.25 µg/mL
same,MIC,"[5]; 18 hours, monohydrochloride",0.25 µg/mL
same,MIC,"[6]; 18 hours, monohydrochloride",0.25 µg/mL
same,MIC,"[7]; 18 hours, monohydrochloride",0.5 µg/mL
same,MIC,[8],0.03 µg/mL
same,MIC,"[9]; 18 hours, monohydrochloride",0.5 µg/mL
same,MIC,"[10]; 18 hours, monohydrochloride",0.25 µg/mL
same,MIC,"[11]; 18 hours, monohydrochloride",0.12 µg/mL
same,MIC,[12],0.25 µg/mL
same,MIC,"[13]; 18 hours, monohydrochloride",2 µg/mL
same,MIC,"[14]; 18 hours, monohydrochloride",0.25 µg/mL
same,MIC,"[15]; 18 hours, monohydrochloride",0.5 µg/mL
same,MIC,"[16]; 18 hours, monohydrochloride",16 µg/mL
same,MIC,[17]; 18 hours,2 µg/mL
same,MIC,"[18]; 18 hours, monohydrochloride",0.03 µg/mL
same,MIC,"[19]; 18 hours, monohydrochloride",0.03 µg/mL
same,MIC,"[20]; 18 hours, monohydrochloride",0.03 µg/mL and 0.06 µg/mL
same,MIC,"[21]; 18 hours, monohydrochloride",0.12 µg/mL
same,MIC,"[22]; 18 hours, monohydrochloride",0.25 µg/mL
same,MIC,"[23]; 18 hours, monohydrochloride",0.12 µg/mL
same,MIC,"[24]; 18 hours, monohydrochloride",2 µg/mL
same,MIC,"[25]; 18 hours, monohydrochloride",0.5 µg/mL
same,MIC,"[26]; 18 hours, monohydrochloride",0.5 µg/mL
same,MIC,"[27]; 18 hours, monohydrochloride",4 µg/mL
same,MIC,"[28]; 18 hours, monohydrochloride",16 µg/mL
"O=C(O)c1cn(C2CC2)c2cc(N3CCNC(c4ccco4)C3)c(F)cc2c1=O (stereo not drawn) [Example 99, 1-Cyclopropyl-6-fluoro-1,4-dihydro-4-oxo-7-[3-(2-furanyl) -1-piperazinyl-3-quinolinecarboxylic acid, monohydrochloride]",MIC,"[29]; 18 hours, monohydrochloride",0.06 µg/mL
same,MIC,"[30]; 18 hours, monohydrochloride",0.03 µg/mL
same,MIC,"[2]; 18 hours, monohydrochloride",0.03 µg/mL
same,MIC,[31],0.12 µg/mL
same,MIC,[32],8 µg/mL
same,MIC,Escherichia coli LL 311,0.03 µg/mL
same,MIC,[33],0.5 µg/mL
same,MIC,"[9]; 18 hours, monohydrochloride",0.25 µg/mL
same,MIC,"[10]; 18 hours, monohydrochloride",0.12 µg/mL
same,MIC,[12],0.5 µg/mL
same,MIC,"[13]; 18 hours, monohydrochloride",0.5 µg/mL
same,MIC,"[34]; 18 hours, monohydrochloride",4 µg/mL
same,MIC,"[16]; 18 hours, monohydrochloride",8 µg/mL
same,MIC,"[17]; Enterococcus faecalis, UCI8519, 18 h, read-out: MIC",0.5 µg/mL
same,MIC,"[18]; Staphylococcus aureus, VGH8445, 18 h, read-out: MIC",< 0.015 µg/mL
same,MIC,"[19]; Staphylococcus aureus, 18 h, read-out: MIC",< 0.015 µg/mL
same,MIC,[35],4 µg/mL
same,MIC,"[20]; 18 hours, monohydrochloride",0.06 µg/mL and 0.12 µg/mL
same,MIC,"[36]; 18 hours, monohydrochloride",4 µg/mL
same,MIC,"[23]; Morganella morganii, CMC8437, 18 h, read-out: MIC",0.12 µg/mL
same,MIC,"[26]; 18 hours, monohydrochloride",0.25 µg/mL
same,MIC,"[37]; 18 hours, monohydrochloride",16 µg/mL
same,MIC,"[27]; 18 hours, monohydrochloride",0.5 µg/mL
same,MIC,[38],2 µg/mL
same,MIC,"[28]; 18 hours, monohydrochloride",8 µg/mL
O=C(O)c1cn(C2CC2)c2cc(N3CCNC(c4cc[nH]c4)C3)c(F)cc2c1=O (stereo not drawn) [Example 119],MIC,"[1]; Providencia rettgeri, IO8321, 18 h, read-out: MIC",0.12 µg/mL
same,MIC,"[29]; Enterobacter cloacae, K8410, 18 h, read-out: MIC",0.3 µg/mL
same,MIC,"[30]; Staphylococcus aureus, ATTC29213, 18 h, read-out: MIC",0.12 µg/mL
same,MIC,"[2]; Staphylococcus aureus, K8226, 18 h, read-out: MIC",0.5 µg/mL
same,MIC,"[3]; Escherichia coli, VGH8419, 18 h, read-out: MIC",0.015 µg/mL
same,MIC,"[4]; Klebsiella pneumoniae, CMC8431, 18 h, read-out: MIC",0.06 µg/mL
same,MIC,"[5]; Morganella morganii, MOR8445, 18 h, read-out: MIC",0.03 µg/mL
same,MIC,"[6]; Staphylococcus aureus, CMC83131, 18 h, read-out: MIC",0.25 µg/mL
same,MIC,"[7]; Morganella morganii, VHG8412, 18 h, read-out: MIC",0.5 µg/mL
same,MIC,"[9]; Serratia marcescens, MOR8441, 18 h, read-out: MIC",0.5 µg/mL
same,MIC,Citrobacter div. K 82-24,0.03 µg/mL
same,MIC,"[10]; Morganella morganii, CMC8438, 18 h, read-out: MIC",0.06 µg/mL
same,MIC,"[11]; Staphylococcus aureus, VGH8447, 18 h, read-out: MIC",0.12 µg/mL
same,MIC,"[13]; Enterococcus faecalis, CMC83120, 18 h, read-out: MIC",0.2 µg/mL
same,MIC,"[34]; Pseudomonas aeruginosa, K8416, 18 h, read-out: MIC",4 µg/mL
same,MIC,"[14]; Enterobacter cloacae, VGH8439, 18 h, read-out: MIC",0.06 µg/mL
same,MIC,"[15]; Klebsiella pneumoniae, MOR8424, 18 h, read-out: MIC",0.12 µg/mL
same,MIC,"[16]; Serratia marcescens, CMC8374, 18 h, read-out: MIC",16 µg/mL
same,MIC,"[20]; Escherichia coli, ATCC25922, 18 h, read-out: MIC",0.008 µg/mL
same,MIC,"[21]; Escherichia coli, MOR8420, 18 h, read-out: MIC",0.015 µg/mL
same,MIC,"[22]; Escherichia coli, CMC8450, 18 h, read-out: MIC",0.03 µg/mL
same,MIC,"[36]; Pseudomonas aeruginosa, CMC8320, 18 h, read-out: MIC",2 µg/mL
same,MIC,"[24]; Enterococcus faecalis, VGH8469, 18 h, read-out: MIC",0.5 µg/mL
same,MIC,"[25]; Klebsiella pneumoniae, IO835, 18 h, read-out: MIC",0.12 µg/mL
same,MIC,"[26]; Enterobacter cloacae, MOR8430, 18 h, read-out: MIC",0.5 µg/mL
same,MIC,"[37]; Pseudomonas aeruginosa, VGH843, 18 h, read-out: MIC",8 µg/mL
same,MIC,"[27]; Enterococcus faecalis, UCI8530, 18 h, read-out: MIC",1 µg/mL
same,MIC,"[28]; Providencia, CMC833, 18 h, read-out: MIC",4 µg/mL
